Test results taken from patent US20240091365A1, “BETA-GLUCURONIDE LINKER-PAYLOADS, PROTEIN CONJUGATES THEREOF, AND METHODS THEREOF” (priority 2022, published 2024).
Like-named read-outs stand apart in the source and are kept apart here.

Experiments:
[1] = target: E. coli β-Glucuronidase (Escherichia coli, UniProt P05804); test: β-Glucuronidase reactivity: enzymatic cleavage of linker-payloads monitored by LCMS; type: in vitro ADME; settings: 10 μM linker-payload, 300 U/mL enzyme, 50 mM sodium acetate, 37° C., release of (207) from (107), (201) from (108)
E. coli β-Glucuronidase, sequence (P05804 whole entry): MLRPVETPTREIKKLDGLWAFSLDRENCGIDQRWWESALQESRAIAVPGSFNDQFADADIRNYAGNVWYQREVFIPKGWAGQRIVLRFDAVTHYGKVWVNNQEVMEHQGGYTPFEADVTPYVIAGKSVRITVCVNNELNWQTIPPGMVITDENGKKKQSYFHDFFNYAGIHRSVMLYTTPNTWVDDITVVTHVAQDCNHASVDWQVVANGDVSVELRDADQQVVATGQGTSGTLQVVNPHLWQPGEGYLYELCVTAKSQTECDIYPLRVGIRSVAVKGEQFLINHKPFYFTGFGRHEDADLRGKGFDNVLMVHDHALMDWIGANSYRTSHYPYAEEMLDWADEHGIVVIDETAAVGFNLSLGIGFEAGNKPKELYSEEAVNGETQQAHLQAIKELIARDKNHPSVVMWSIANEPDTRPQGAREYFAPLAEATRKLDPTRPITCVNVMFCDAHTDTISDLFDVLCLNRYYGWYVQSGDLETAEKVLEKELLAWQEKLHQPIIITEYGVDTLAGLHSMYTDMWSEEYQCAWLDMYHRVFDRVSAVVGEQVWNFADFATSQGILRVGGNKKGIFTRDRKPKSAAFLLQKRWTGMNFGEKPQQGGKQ
Method: The susceptibility of the β-glucuronide linker-payloads to enzymatic cleavage was evaluated by treatment of the (107) and (108) linker-payloads with β-glucuronidase, as shown in FIG. 3A-FIG. 3D. This assay allowed the confirmation of the expected release of Exatecan (207) and 3-amino hemiasterlin (201). The cleavage product was monitored using LCMS. 945 μL of 50 mM sodium acetate, 5 μL of 2 mM (107)/(108) linker-payloads stock (final conc.10 μM) and 50 μL of 6 KU/mL E. coli β-Glucuronidase in 0.2% NaCl (final conc.300 U/mL) were mixed and incubated at 37° C. Aliquots (50 μL) were taken at t=0 h, 0.5 h, 1 h, 2 h, 4 h and 24 h, treated with 3 volumes of quench solution (methanol:acetonitrile 5:95 v/v) and analyzed by LCMS.

[2] = system: Igrov1 cells; test: In vitro cell killing (cell proliferation assay, Cell Titer-Glo) on FolRα positive Igrov1 cells; type: cell-based; settings: for cell killing (in words): Igrov1 cells (FolRα positive)
Source text: (§1) Anti-FolRα antibody conjugated to hemiasterlin with a cathepsin cleavable ValCit linker was used as control. FolRα negative A549 and MC38 cells were purchased from ATCC (American Type Culture Collection, Manassas, VA, USA), and FolRα positive Igrov1 cells were licensed from NCI (National Cancer Institute at Frederick, Maryland). MC38-hFolRα cells were generated at Sutro by stable transfection of a vector expressing human FolRa. All the cell lines were maintained in DMEM:F12 (1:1), high glucose (Corning, Corning, NY) supplemented with 10% heat-inactivated fetal bovine serum (Thermo Scientific, Grand Island, NY), 2 mM glutamax (Thermo Scientific, Grand Island, NY), and 1× Penicillin/Streptomycin (Corning, Corning, NY). Cytotoxicity effects of the ADCs were measured with a cell proliferation assay. A total of 625 cells for Igrov1 and A549, and 312 cells for MC38-hFolRα in a volume of 25 microliters were seeded in a 384-well flat bottom white polystyrene plate the day before the actual assay starts. ADCs were formulated at 2× starting concentration in cell culture medium and filtered through MultiScreen HTS 96-Well Filter Plates (Millipore, Billerica, Massachusetts). Filter sterilized samples were serial diluted (1:3) under sterile conditions and added onto cells in triplicate. Plates were cultured at 37° C. in a CO2 incubator for 120 hours for Igrov1 and A549, and 72 hours for MC38-hFolRα cells. For cell viability measurement, 30 microliters of Cell Titer-Glo® reagent (Promega Corp, Madison, WI) was added into each well, and plates were processed as per product instructions. Relative luminescence was measured on an ENVISION® plate reader (Perkin-Elmer; Waltham, MA). Relative luminescence readings were converted to % viability using untreated cells as controls. Data was fitted with non-linear regression analysis using log (inhibitor) vs. response, variable slope, and 4-parameter fit equation using GraphPad Prism.

[3] = system: A549 cells; test: In vitro cell killing (cell proliferation assay, Cell Titer-Glo) on FolRα negative A549 cells; type: cell-based; settings: for cell killing (in words): A549 cells (hFolRα negative)
Source text: as §1

[4] = system: MC38-hFolRα cells; test: In vitro cell killing (cell proliferation assay, Cell Titer-Glo) on MC38-hFolRα cells; type: cell-based; settings: for cell killing (in words): MC38-hFolRα cells (FolRα positive)
Source text: as §1

| Compound | linker-payload after 30 min with β-glucuronidase (in words) [1] | cell killing (in words) [2] | Span ([2]; Igrov1 cells, 120 hours) | EC50 ([2]; Igrov1 cells, 120 hours, read-out: EC50) | cell killing (in words) [3] | Span ([3]; A549 cells, 120 hours) | EC50 ([3]; A549 cells, 120 hours, read-out: EC50) | Span ([4]; MC38-FolRa cells, 72 hours) | EC50 ([4]; MC38-FolRa cells, 72 hours, read-out: EC50) | cell killing (in words) [4] | EC50 ([2]; Homo sapiens, IGROV-1, 120 h) | potency relative to free Hemiasterlin (201) ([2]; free payloads, statement for the three cell lines tested (Igrov1, MC38-hFolRα, A549)) | EC50 ([3]; Homo sapiens, A549, 120 h) | EC50 ([4]; 72 h) |
| --- | --- | --- | --- | --- | --- | --- | --- | --- | --- | --- | --- | --- | --- | --- |
| CN[C@H](C(=O)N[C@H](C(=O)N(C)[C@H](/C=C(\C)C(=O)O)C(C)C)C(C)(C)C)C(C)(C)c1cccc(NC(=O)OCc2ccc(O[C@@H]3O[C@H](C(=O)O)[C@@H](O)[C@H](O)[C@H]3O)c(CNC(=O)CCNC(=O)[C@H](CNC(=O)CCOCCOCCOCCOCCOCCOCCOCCOCCOCCOCCOCCOC)NC(=O)CCCCC(=O)N3Cc4ccccc4C#Cc4ccccc43)c2)c1 [Compound 108] | most of the (107) and (108) in the reaction mixture had disappeared |  |  |  |  |  |  |  |  |  |  |  |  |  |
| CC[C@@]1(O)C(=O)OCc2c1cc1n(c2=O)Cc2c-1nc1cc(F)c(C)c3c1c2[C@@H](NC(=O)OCc1ccc(O[C@@H]2O[C@H](C(=O)O)[C@@H](O)[C@H](O)[C@H]2O)c(CNC(=O)CCNC(=O)[C@H](CNC(=O)CCOCCOCCOCCOCCOCCOCCOCCOCCOCCOCCOCCOC)NC(=O)CCCCC(=O)N2Cc4ccccc4C#Cc4ccccc42)c1)CC3 [Compound 107, DBCO β-Glucuronide-PEG12-Exatecan] | most of the (107) and (108) in the reaction mixture had disappeared |  |  |  |  |  |  |  |  |  |  |  |  |  |
| 3-amino hemiasterlin [Compound 201] |  | good cell killing | 88% | 0.96 nM | good cell killing | 83% | 13 nM | 82% | 5.5 nM | good cell killing |  |  |  |  |
| CC[C@@]1(O)C(=O)OCc2c1cc1n(c2=O)Cc2c-1nc1cc(F)c(C)c3c1c2[C@@H](N)CC3 [Compound 207, Exatecan] |  | good cell killing | 91% |  | good cell killing | 99% |  | 95% |  | good cell killing | 0.27 nM | about 3 fold | 3.4 nM | 2.3 nM |
